These results are taken from patent US5532382A, “Benzothiophenes substituted at the 3-carbonyl” (Eli Lilly and Company, priority 1995, dated 1996).

Each structure is given as a SMILES string.

As a reminder, the IC50 is the midpoint of a concentration-inhibition curve.

The test system of the first series is MCII cells. In words: MCII MAST CELL TOXICITY ASSAY (XTT). To be noted: XTT formazan, 37° C. 4-12 hours; read-out: MCII Mast Cell Toxicity IC50. The series is classed as cell-based, mouse. The source says:
MCII MAST CELL TOXICITY ASSAY
This toxicity assay is run in parallel with the MCII mast cell LTC4 assay and serves as an indicator of compound effects on the viability and metabolic activity of the MCII cells. This "toxicity" assay is based on the ability of dehydrogenase enzymes present in viable metabolically active cells to bioreduce the tetrazolium salt XTT yielding a colored, water soluble formazan product. (see, Roehm et al.) An improved colorimetric assay for cell proliferation and viability utilizing the tetrazolium salt XTT. J. Immunol. Methods 142:257-65 (1991).
A duplicate polystyrene 96-well tissue culture plate (Costar) is set up with sensitized MCII cells, EM95 ascites, media and dilutions of the test compound as described above. The complete media is supplemented with concanavalin A induced culture supernatants from the mouse helper T cell clone D10.G4, as a source of mast cell growth factors.
Wells of the toxicity assay Elate are pulsed with 25 μl XTT (Sigma) plus phenazine methosulfate (Aldrich) giving a final concentration of 0.2 mg/ml XTT and 25 μM phenazine methosulfate. The plates are incubated at 37° C. in 10% CO2 for 4-12 hours and then production of the XTT formazan product determined by measuring the optical density of the wells at a wavelength of 450 nm. The positive control on each plate is stimulated MCII cells with dimethyl sulfoxide vehicle alone and the negative control is the same reaction mixture without cells. The background negative control value is subtracted from experimental and positive control values and the data are reported as percent of positive control.
For orientation: Tetrazolium assays rely on reduction of a dye to a coloured formazan, in cell work by metabolically active cells.
With `O=C(c1ccccc1)c1c(-c2ccc(O)cc2)sc2cc(O)ccc12` [Compound A], the CC50 was found to be 0.3 µM. `Oc1ccc(-c2cc3ccc(O)cc3s2)cc1` [Compound B]: the CC50 is less than 10 µM. The same measure, in the same setting: under `O=C(c1ccc(-c2ccccc2)cc1)c1c(-c2ccc(O)cc2)sc2cc(O)ccc12` [Example 1, 6-hydroxyphenyl-2-(p-hydroxyphenyl)-(benzo(B)thien-3-yl)(p-phenyl)phenyl methanone] stands more than 10 µM; under `O=C(c1cccc2ccccc12)c1c(-c2ccc(O)cc2)sc2cc(O)ccc12` [Example 2, 6-hydroxyphenyl-2-(p-hydroxyphenyl)-(benzo(B)thien-3-yl) (α-naphyl)methanone], more than 10 µM; under `O=C(c1ccc2ccccc2c1)c1c(-c2ccc(O)cc2)sc2cc(O)ccc12` [Example 3, 6-hydroxyphenl-2-(p-hydroxyphenyl)-(benzo(B)thien-3-yl) (β-napthyl)methanone], more than 10 µM.

For another series, the system named is production of thromboxane B2 (T×B2) in plasma-depleted blood. In words: Inhibition of Eicosanoid Production by Plasma-depleted Blood: TxB2. Type of series: cell-based. As to conditions: Homo sapiens, read-out: Plasma DPLTD Blood TxB2 IC50. How it is done:
Inhibition of Eicosanoid Production by Plasma-depleted Blood.
Compounds are evaluated for their ability to inhibit production of leukotriene B4 (LTB4) and thromboxane B2 (T×B2) upon stimulation of human plasma-depleted blood with formyl-methionyl-leucyl-phenylalanine (FMLP) and thrombin. LTB4 is produced by neutrophils and T×B2 by platelets stimulated at their respective receptors with FMLP and thrombin. The assay is carried out in 1 ml deep well polypropylene 96-well plates (Beckman). For the test, ten ml of blood is collected in EDTA at a final concentration of 1.5 mg/ml. Then, 40 ml glucose phosphate buffer containing 0.1% gelatin is added and the suspension centrifuged at 900 g for 10 minutes at room temperature. The supernatant is discarded and the cells washed once with 50 ml buffer before resuspending them in 50 ml Krebs-Ringers-Henseleit Buffer containing 0.1% gelatin, 1 mM […], 1.1 mM MgCl2 (KRH buffer). Working solutions of test compounds are made by dissolving the material in DMSO at 10 mM and diluting with appropriate amounts of KRH buffer. An agonist solution is made containing 1 μM FMLP (sigma) and 10 units/ml of thrombin in KRH buffer (Enzyme Research Labs). […] The amount of LTB4 and T×B2 produced is determined by the use of a competetive enzyme immunoassay using commercial reagents from Cayman Chemical.
Consider `O=C(c1ccc(O)cc1)c1c(-c2ccc(O)cc2)sc2cc(O)ccc12` [Compound D], for which the half-inhibitory concentration (IC50) was more than 9.8 µM.
